Source: patent publication US20110046223A1, “TREATMENT OF NEUROFIBROMATOSIS” (RAMOT AT TEL-AVIV UNIVERSITY LTD., priority 2006, published 2011)

Columns and labels:
Assay type in all cases: cell-based, human
phospho-ERK [1] = experiment: steady-state phospho-ERK, Western immunoblotting
Procedure: (§1) Unless otherwise indicated, cells were lysed 48 hours after being treated with lysis buffer, as described in Haklai, et al., supra. […] Protein bands were visualized by ECL and quantified by densitometry with Image Master VDS-CL (Amersham) using TINA 2.0 software (Ray Tests). To obtain reliable comparisons between replicated experiments for statistical analysis, a standardization procedure was used, in which the density of each given protein band as recorded with its specific Ab, was normalized. […] The standard average density was defined as 1.0, and each of the individually determined bands was related to this value. […] Actin cytoskeletal elements were labeled with rhodamine-phalloidin, and digital fluorescence images were collected on a Zeiss LSM 510 confocal microscope fitted with fluorescein and rhodamine filters, as described in Gana-Weisz, M., et al., supra.
Next, to determine whether down-regulation of active Ras by FTS was accompanied by inhibition of Ras signaling, the effect of FTS on steady-state levels of phospho-ERK, phospho-Akt, and RalA-GTP as read-outs of the three prominent Ras pathways, Ras/Raf/MEK/ERK, Ras/PI3K/Akt, and Ras/RalGEF/RalA, respectively, was examined. […]

Ras-GTP = experiment: serum-stimulated GTP loading of Ras, kinetic study
Procedure: Unless otherwise indicated, cells were lysed 48 hours after being treated with lysis buffer, as described in Haklai, et al., supra. Lysates containing 50-100 μg protein were subjected to SDS-PAGE followed by Western immunoblotting, as described in Haklai, et al., supra.; Elad-Sfadia, G., Haklai, R., Ballan, E., Gabius, H. J., Kloog, Y., J. Biol. Chem. 277:37169-75 (2002); Paz, A., Haklai, R., Elad, G., Ballab, E., Kloog, Y., Oncogene 20:7486-93 (2000), with one of the following antibodies: 1:2000 pan-Ras Ab-3; 1:10,000 anti-phospho-ERK Ab; 1:2000 anti-ERK Ab; 1:1000 anti-Akt Ab; 1:2000 anti-phospho-Akt Ab; 1:500 antitubulin Ab; 1:5000 anti-RalA Ab; 1:1000 anti-p120 RasGAP Ab; or 1:200 anti-neurofibromin Ab. The immunoblots were then exposed either to 1:7500 peroxidase goat anti-mouse IgG or to 1:2000 peroxidase goat anti-rabbit IgG. Protein bands were visualized by ECL and quantified by densitometry with Image Master VDS-CL (Amersham) using TINA 2.0 software (Ray Tests). To obtain reliable comparisons between replicated experiments for statistical analysis, a standardization procedure was used, in which the density of each given protein band as recorded with its specific Ab, was normalized. Normalization was achieved by collecting and averaging all the data obtained for a given band (for example, for the Ras-GTP band) in a set of experiments, irrespective of cell type or treatment. The standard average density was defined as 1.0, and each of the individually determined bands was related to this value. Accordingly, the normalized value of a single band would be 1.0 if it was equal to the standard value, or would range between values above and below 1.0 (respectively representing values higher and lower than the standard). The normalized values thus obtained were used to calculate means±SD and, to determine, using Student's t-test, the statistical significance of differences between populations. Lysates containing 500 μg protein were used to determine Ras-GTP by the GST-RBD pull-down assay, and this was followed by Western immunoblotting with pan anti-Ras Ab as described in Elad-Sfadia, G., et al., supra. Lysates containing 500 μg protein were used to determine RalA-GTP by the GST-RalBD pulldown assay, followed by Western immunoblotting with anti-RalA Ab [Wolthuis, R. M., Zwartkruis, F., Moen, T. C., Bos, J. L. Ral. Curr. Biol. 8:471-4 (1998)]. Actin cytoskeletal elements were labeled with rhodamine-phalloidin, and digital fluorescence images were collected on a Zeiss LSM 510 confocal microscope fitted with fluorescein and rhodamine filters, as described in Gana-Weisz, M., et al., supra.
(§2) First, the time courses of serum-stimulated GTP loading of Ras and serum-stimulated activation of signals downstream of Ras were determined. […]

phospho-ERK [2] = experiment: serum-stimulated phospho-ERK, kinetic study
Procedure: as §1, §2

phospho-Akt = experiment: serum-stimulated phospho-Akt, kinetic study
Procedure: as §1, §2

Ras, ERK, or Akt = experiment: total Ras, ERK, Akt in serum-stimulation experiment; details: STS26T cells, serum-stimulation conditions
Procedure: as §1, §2

[3] = all NF-1 cell lines (T265P21, ST88-14, 90-8)
[4] = STS26T cells, serum-starved 24 hours, stimulated with 10% serum

Question: Which results are given for `CC(C)=CCC/C(C)=C/CC/C(C)=C/CSc1ccccc1C(=O)O` [FTS, S-farnesylthiosalicylic acid]?
Answer: steady-state phospho-ERK (phospho-ERK [1]; all NF-1 cell lines): significant reduction; increase in phospho-ERK (phospho-ERK [1]; non-NF-1 STS26T cells, steady state): 10%-20%; duration of the Ras signal in the presence of FTS (Ras-GTP; NF-1 cells, serum stimulation): 5 to 10 min; serum-stimulated increase in Ras-GTP (Ras-GTP; STS26T cells, 20 μM FTS, serum-starved 24 hours, stimulated with 10% serum): strongly inhibited; duration of the serum-stimulated signals (Ras-GTP, phospho-ERK, phospho-Akt) (Ras-GTP; all NF-1 cell lines): shortened the duration of the signals; serum-stimulated increase in Ras-GTP (Ras-GTP; [3]): reduced; serum-stimulated increase in phospho-ERK (phospho-ERK [2]; [4]): inhibited; serum-stimulated increase in phosphor-ERK (phospho-ERK [2]; [3]): reduced; serum-stimulated increase in phospho-Akt (phospho-Akt; [4]): inhibited; serum-stimulated increase in phospho-Akt (phospho-Akt; [3]): reduced; total amounts of Ras, ERK, or Akt (Ras, ERK, or Akt): no effect
